The values that follow are results of earlier work, collected in patent publication US20090291140A1, “TREATMENT OF DY[…] TRANSDERMAL ADMINISTRATION OF NONSTEROIDAL ANTI-INFLAMMATORY DRUGS” (priority 2008, published 2009).

For this series, the target named is T1, 5-lipoxygenase (Homo sapiens, UniProt P09917).
T1 sequence (P09917 1-674): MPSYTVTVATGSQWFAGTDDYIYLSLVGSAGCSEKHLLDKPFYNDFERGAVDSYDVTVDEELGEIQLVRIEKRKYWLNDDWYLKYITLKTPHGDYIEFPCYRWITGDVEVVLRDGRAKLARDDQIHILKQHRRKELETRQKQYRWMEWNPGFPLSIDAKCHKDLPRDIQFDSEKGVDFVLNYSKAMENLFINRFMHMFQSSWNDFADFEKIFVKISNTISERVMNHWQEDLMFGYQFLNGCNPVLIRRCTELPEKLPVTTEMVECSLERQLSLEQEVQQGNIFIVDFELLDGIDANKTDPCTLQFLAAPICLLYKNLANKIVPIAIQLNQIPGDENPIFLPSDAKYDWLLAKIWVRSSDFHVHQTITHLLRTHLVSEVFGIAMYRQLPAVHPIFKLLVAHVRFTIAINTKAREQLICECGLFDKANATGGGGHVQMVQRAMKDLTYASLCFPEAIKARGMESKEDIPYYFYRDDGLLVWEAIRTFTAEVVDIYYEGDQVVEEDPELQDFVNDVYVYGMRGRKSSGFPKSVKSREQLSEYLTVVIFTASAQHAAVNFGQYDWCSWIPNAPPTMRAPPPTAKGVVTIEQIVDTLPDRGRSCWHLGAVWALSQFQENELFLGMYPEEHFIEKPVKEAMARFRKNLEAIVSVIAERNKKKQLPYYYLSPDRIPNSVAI
The settings on record: in-vitro studies.

In the case of `Cc1ccc(Cl)c(Nc2ccccc2C(=O)O)c1Cl` [meclofenamate], the “inhibition of the activity of 5-lipoxygenase” value is listed as “inhibit the activity of 5-lipoxygenase”.
